Laboratory results from US20030148966A1, “Method and composition for inducing apoptosis in cells” (priority 2002, published 2003).
Where “and” joins values, the source holds several entries; their conditions need not be identical. Equal entries are not always repeated. Where two headings read alike, the source gives them in different places.

How the values were obtained:
HL-60 cells [1] = settings: 48 hours
HL-60 cells [2] = assay: ATP bioluminescence assay (intracellular ATP content); assay type: cell-based, human; settings: 16 hours, percent of untreated control
Protocol: ATP content was measured with the ATP bioluminescence assay kit HS II from Boehringer Mannheim (Roche Molecular Biochemicals, Mannheim, Germany). Cells were treated with adenosine and BR for 16 hours, and subsequently their viability was measured by trypan blue exclusion. […] An equal amount of cell lysis reagent was then added, and after an incubation period of 5 minutes at room temperature, the samples were transferred to microtiter plates. A Luciferase reagent (100 μl) was added and the signal was detected immediately on a lumi Imager F1 (Roche). Experiments were done in triplicates, and the values of treated samples calculated as percent of untreated controls. […] Cells were harvested and the intercellular ATP content was measured as described in herein. Statistical analysis by t-test confirmed that the differences between ATP-levels after treatment with BR (+/−adenosine) were significant (p<0.05).

HL-60 cells [3] = assay: Comet assay (single cell gel electrophoresis), DNA strand breaks; assay type: cell-based, human; settings: for DNA tail length: % of cells <= 25 μm: 16 hours, alkaline pH 13.0; for DNA single strand breaks: alkaline pH (13.0)
HL-60 cells [4] = assay: Deoxyribonucleotide (dNTP) extraction and DNA-polymerase assay; assay type: cell-based, human; settings: 16 hours; for % dATP / % dCTP: percent of control
Protocol: The TCA extract was dried using a Speedvac drying system at room temperature and, if necessary, stored at −20° C. until analysis. The assay for dNTP, which is based on the original DNA-polymerase assay^22, was optimized by the use of 96-well plates^23 and tailor-made oligonucleotides^24,25, and was performed as previously described for dCTP^21. After reconstitution of the samples in Hepes-buffered assay buffer (pH 7.3) at 10^7 cells/ml, samples and standards (0, 1, 2.5 and 5 pmol dNTP) were added to diethylaminoethyl (DEAE) filter plates (Millipore, Ettenleur, The Netherlands). This was followed by the addition of demi water (up to 30 μl if a reaction mix, consisting of 10 μl [8-^3H]dATP (25 μM; 1.6 Ci/mmol; 0.04 μCi/μl) for detection of dCTP, dTTP and dGTP and 10 μl[CH3-^3H]dTTP (25 μM; 1.6 Ci/mmol; 0.04 μCi/μl) for dATP detection, 5 μl appropriate oligonucleotide (6 μM. consisting of a primer attached to one of four possible templates specially designed for the detection of one of the four dNTPs), 5 μl Klenow DNA pol I and […] assay buffer. The filterplates were gently vortexed and incubated at room temperature for 2 hours. The wells were washed, the wet filters punched out and radioactivity counted as described^21. The dNTP levels were determined after 16-hours of treatment. At this time point, cells were still alive and membranes intact, preventing non-specific loss of dNTP's^33. […] Whereas, dCTP (89% of control)- and dATP (81% of control)-levels were in the range of control when cells were treated with 5 μM BR, exposure to 20 μM BR, caused a drop in dCTP and dATP levels to 37% and 33%, respectively.

in vitro = settings: human
leukemia cells = assay: Oncolytic activity against leukemia cells; assay type: cell-based
HL-60 cells [5] = assay: Transmission electron microscopy of cell morphology; assay type: cell-based, human; settings: 48 hours
Protocol: For transmission electron microscopy (TEM) cells treated with PBS (controls), […] glutaraldehyde (in 0.1 M sodium cacodylate buffer with 4% sucrose, pH 7.2) for 45 minutes, washed in sodium cacodylate buffer and post-fixed in 2% osmium tetroxide (in 0.1 M sodium cacodylate buffer with 4% sucrose) for 45 minutes. Following several washes, the cells were concentrated by centrifugation at 150 g for 5 minutes, dehydrated in a graded series of ethanol, washed in propylene oxide, embedded in Epon (Serva, Germany), and sectioned at about 70 nm. The ultra-thin sections were stained with uranyl acetate/lead citrate for observation with a Zeiss EM 902 transmission electron microscope.
The bars at the lower right corners indicated 1.1 μm.

HL-60 cells [6] = assay: Western blots: PARP, gelsolin and Caspase 3 cleavage; assay type: cell-based, human
Protocol: Cells from treated and untreated cultures were sedimented, washed in cold PBS, and lysed in SDS sample buffer (25 mM TRIS pH 6.8, 3% SDS, 10% glycerol, 36 mM DTT, 0.925 mM EDTA). Equal amounts of protein (calculated with the Dot Metric Protein Assay Kit from Novus Molecular, San Diego, Calif., USA) were loaded onto 10% or 15% polyacrylamide gels. Proteins were electrophoresed at 80 V for 2 to 3 hours, and then transblotted onto PVDF membranes (Hybond P, Amersham International, UK) at 80 V for 2 hours^20. Membranes were quenched in PBS with 0.5% skim milk and 0.05% Tween 20 for 1 hour, incubated with primary antibodies (mouse monoclonal anti PARP C-2-10 used 1:2000, mouse monoclonal anti-gelsolin used 1:2000, Sigma; rabbit polyclonal anti caspase 3 antibody used 1:1000, St. Cruz) overnight at 4° C., and with horseradish peroxidase, conjugated secondary antibody for 2 hours at room temperature. The ECL kit (Amersham International, UK) was used for blot development; chemiluminescence was detected on Kodak Xomat UV films.
Controls were treated with saline for 24 hours and western blots were performed as described herein. The 89 kD cleavage product of PARP and the 41 kD cleavage product of gelsolin could be detected upon treatment with 5 μM and 10 μM BR, and diminished in response to higher doses of BR.
5 μM and 10 μM BR, which mainly induce apoptosis, triggering processing of caspase 3.20 μM and 40 μM BR mainly provokes necrosis. This is also reflected by the reduced levels of activated caspase 3. In the presence of adenosine, 20 μM and 40 μM BR activate caspase 3 and also induce apoptosis. Equal sample loading was controlled by Ponceau S staining.

CC1=C(/C=C/C(C)=C/C=C/C(C)=C/C(=O)O)C(C)(C)CCC1 [ATRA, all-trans retinoic acid, reference compound]
% apoptotic cells (HL-60 cells [1]; 120 μM ATRA): 30%
% necrotic cells (HL-60 cells [1]; 120 μM ATRA): 45%

Nc1ncnc2c1ncn2[C@@H]1O[C@H](CO)[C@@H](O)[C@H]1O [Ade, adenosine, reference compound]
% ATP (HL-60 cells [2]; adenosine alone (800 μM)): 85%
DNA tail length: % of cells <= 25 μm (HL-60 cells [3]; adenosine alone): 98% <= 25 μm
% dATP (HL-60 cells [4]; adenosine alone): 70%
% dCTP (HL-60 cells [4]; adenosine alone): 64%
viability at 48 h, 800 µM (in vitro): 93%
% apopt (HL-60 cells [1]; adenosine alone): 7%
% necro (HL-60 cells [1]; adenosine alone): 0%
% total death (HL-60 cells [1]; adenosine alone): 7%
% viable + apopt (HL-60 cells [1]; adenosine alone): 100%

NC(=O)c1cccc([C@@H]2O[C@H](CO)[C@@H](O)[C@H]2O)c1 [BR, benzamide riboside]
concentration range of strong oncolytic activity (leukemia cells): 5 to 10 µM
% ATP (HL-60 cells [2]; 5 μM BR +/- adenosine (800 μM)): 50%
% ATP (HL-60 cells [2]; 20 μM BR +/- adenosine (800 μM)): 3% and 2.7%
cell morphology by electron microscopy (HL-60 cells [5]; 5 μM BR): electron dense chromatin marginated at the nuclear envelope as a hallmark of apoptosis
cell morphology by electron microscopy (HL-60 cells [5]; 20 μM BR): typical necrotic morphology
DNA single strand breaks (HL-60 cells [3]; 5 μM BR): but not with 5 μM BR treatment
DNA tail length: % of cells <= 25 μm (HL-60 cells [3]; 20 μM BR +/- adenosine): 50% <= 25 μm
DNA double strand breaks (HL-60 cells [3]; 20 μM BR, 8 hours, neutral pH (7.5)): induced DNA double strand breaks
DNA single strand breaks (HL-60 cells [3]; 20 μM BR): DNA single strand breaks occurred
% dATP (HL-60 cells [4]; 5 μM BR +/- adenosine): 81%
% dCTP (HL-60 cells [4]; 5 μM BR +/- adenosine): 89%
dGTP levels, % of control (HL-60 cells [4]; 5 μM or 20 μM BR): approximately 53%
% dATP (HL-60 cells [4]; 20 μM BR +/- adenosine): 33%
% dCTP (HL-60 cells [4]; 20 μM BR +/- adenosine): 37%
% apopt (HL-60 cells [1]; 5 μM BR +/- adenosine): 69%
% necro (HL-60 cells [1]; 5 μM BR +/- adenosine): 2%
% total death (HL-60 cells [1]; 5 μM BR +/- adenosine): 71%
% viable + apopt (HL-60 cells [1]; 5 μM BR +/- adenosine): 98%
% apopt (HL-60 cells [1]; 20 μM BR +/- adenosine): 30%
% necro (HL-60 cells [1]; 20 μM BR +/- adenosine): 51%
% total death (HL-60 cells [1]; 20 μM BR +/- adenosine): 81%
% viable + apopt (HL-60 cells [1]; 20 μM BR +/- adenosine): 49%
cell death and gelsolin cleavage (HL-60 cells [6]; 0.5 μM, 1 μM or 2 μM BR, 24 hours): neither induced cell death, nor gelosin cleavage
Caspase 3 activation (p20 kD fragment) (HL-60 cells [6]; 5 μM and 10 μM BR, 24 hours): Caspase 3 activation culminated
cell death mode; gelsolin (41 kD) and PARP (89 kD) fragmentation (HL-60 cells [6]; 5 μM or 10 μM BR, 24 hours): caused apoptosis
cell death mode; PARP and gelsolin fragmentation (HL-60 cells [6]; 20 μM BR, 24 hours): increase of the fraction of necrotic cells
Caspase 3 activation (p20 kD fragment) (HL-60 cells [6]; 20 μM or 40 μM BR +/- 800 μM adenosine): activation was inhibited
